From patent US6492329B1, “Cytokine and hemopoietic factor endogenous production enhancer and methods of use thereof” (Novelos Therapeutics, Inc., priority 1995, dated 2002)

Experiments:
leukemia P388 cells [1] = experiment: Leukemia P388 in mice: ascitic fluid and survival (Example 14); settings: for Accumulation of ascitic (weight gain, %): leukemia P388
Description: (§6) An influence of 7 day course of test article daily administration was studied in respect of tumor progression, which was estimated using the two integral indices: pace of mouse weight gain due to accumulation of ascitic fluid, and by animal mean survival time after inoculation.
(§7) The study was carried out on DBA/2 mice weighing 18-21 g. First, tumor cell passage was performed using 6 animals for each cell line. For this, cells kept at the temperature of the liquid nitrogen were de-frozen and adjusted to the concentration of 5×10^6 cells/mL by sterile Hanks' solution. Then, 6 mice were intra peritoneally inoculated with 0.2 mL of each line cellular suspension.
(§8) Ascitic fluid was collected 6 days after the inoculation with L1210 cells, 8 days after the inoculation with P388 ones and 18 days after inoculation with Erlich adenocarcinoma cells. Thus obtained, the samples of passaged tumor cells were used for the main experiments. The fluid liquid was dissolved by sterile Hanks' solution so that cell concentration be 5×10^6 cells/mL for P388 cells and Erlich adenocarcinoma cells, 5×10^5 cells/mL for L1210 cells.
(§9) Eleven groups of animals with no less than 15 mice each were formed for experiments with either tumor cell line. Mice were inoculated with 0.2 mL of resultant cell suspensions per mouse (10^6 P388 and Erlich adenocarcinoma cells/mouse, and 10^5 L1210 cells/mouse). 24 hours after the tumor cells inoculation, animals were given the first injections of the test articles or vehicles. The test article injections were made daily till the 14th day of the experiment or till the animal death. The volume of solutions injected comprised 0.01 mL/g body weight.
(§10) #1—intact animals receiving imitation of tumor cell inoculation (injection of normal saline) which further were treated with normal saline throughout the entire experiment;
(§11) #2—control animals, inoculated with tumor cells, which further were treated with test article vehicle (normal saline);

[2] = system: e-ras cell line (REF transformed with E1A and ras-oncogene); experiment: Number of clones of e-ras cells throughout 72-hr incubation; assay type: cell-based, rat
Description: (§1) To this end, these substances had been incubated for 72 hours with cells of rat embrional fibroblasts (REF) and the same cells, transformed with adenoviral E1A gene in complementation with ras-oncogene (e-ras cell line). Subsequent evaluation of the cellularity of experimental samples was carried out by counting the quantity of cell per milliliter (for REF cell line) or clones in dish (for e-ras cell line).
(§2) Cells were cultivated on DMEM medium supplemented with 10% fetal calf serum and […] gentamicin. Cultivation was carried out in Petri dishes.
(§3) E-ras cells were seeded at a cell density of 300 cells per 5 cm dish. 7 days after growth of e-ras cells had been started the quantity of clones was evaluated and the test articles were added into the dishes.
(§4) For the test-system for estimation of apoptosis regulation UV-induced cell death was triggered in a dose of 4 Dj. Test articles were added immediately after irradiation. Then, the quantity of cell per milliliter (for REF cell line) or clones in dish (for e-ras cell line) were monitored every 24 hours. For determination of DNA-fragmentation the electrophoresis in agarose gel was used at standard settings.

[3] = system: e-ras cells after UV-irradiation; experiment: Number of clones of e-ras cells after UV-irradiation; assay type: cell-based, rat
Description: as §1, §2, §3, §4

leukemia P388 cells [4] = experiment: Leukemia P388 in mice: serum cytokines, ascitic fluid, survival (Example 5); settings: for Accumulation of ascitic fluid (weight gain) / Concentration in serum: IFNα / Concentration in serum: IL-1 / Concentration in serum: IL-2 / Concentration in serum: IL-6 / Concentration in serum: TNFα: P388 mice
Description: (§12) An influence of 7 day course of test article daily administration was studied in respect of variations of serum cytokine levels (IL-1, IL-2, IL-6, IFNα, TNF). In parallel, the tumor progression was estimated using the two integral indices: pace of mouse weight gain due to accumulation of ascitic fluid, and by animal mean survival time after inoculation.
(§13) The study was carried out on DBA/2 mice weighing 18-21 g. First, tumor cell passage was performed using 6 animals for each cell line. For this, cells kept at the temperature of the liquid nitrogen were de-frozen and adjusted to the concentration of 5×10^6 cells/mL by sterile Hanks' solution. Then, 6 mice were intraperitoneally inoculated with 0.2 mL of each line cellular suspension.
(§14) Ascitic fluid was collected 6 days after the inoculation with L1210 cells and 8 days after the inoculation with P388 ones. Thus obtained, the samples of passaged tumor cells were used for the main experiments. The fluid liquid was dissolved by sterile Hanks' solution so that cell concentration be 5×10^6 cells/mL for P388 cells and 5×10^5 cells/mL for L1210 cells.
(§15) Nine groups of animals with no less than 15 mice each were formed for experiments with either tumor cell line. Mice were inoculated with 0.2 mL of resultant cell suspensions per mouse (10^6 P388 cells/mouse, and 10^5 L1210 cells/mouse). 24 hours after the tumor cells inoculation. animals were given the first injections of the test articles or vehicles. The test article injections were made daily till the 14th day of the experiment or until the animal's death. The volume of solutions injected comprised 0.01 mL/g body weight.
as §10, §11

leukemia L1210 cells [5] = experiment: Leukemia L1210 in mice: ascitic fluid and survival (Example 14); settings: for Accumulation of ascitic (weight gain, %): leukemia L1210
leukemia L1210 cells [6] = experiment: Leukemia L1210 in mice: serum cytokines, ascitic fluid, survival (Example 5); settings: for Accumulation of ascitic fluid (weight gain) / Concentration in serum: IFNα / Concentration in serum: IL-1 / Concentration in serum: IL-2 / Concentration in serum: IL-6 / Concentration in serum: TNFα: L1210 mice
Description: as §12, §13, §14, §15, §10, §11

normal human lymphocytes = experiment: Proliferation/apoptosis of normal human lymphocytes (cell number per well, flow cytofluorometry); assay type: cell-based
HL-60 cells = experiment: Proliferation/apoptosis of HL-60 tumor cells (cell number per well, flow cytofluorometry)
Description: Subsequent evaluation of the cell cycle parameters was carried out by the flow cytofluorometry technique.
A mononuclear fraction of blood leukocytes were obtained by centrifugation in gradient of fikoll-metrizoat (Histopaque, Sigma). […] Cell viability was estimated by the Trypan blue exclusion method, then the cell suspension was placed into wells of 96-well microtiter plates—200,000 cells per well. […] Cultivation was carried out in closed flasks, the medium volume was 12 mL, it was changed every four days by centrifugation. The nature of the cells growth was suspensive. […] 50 μL of each test solution were added to one or the other cell culture and thereafter cells were cultivated for 24-96 hours. Then, they were tested by the flow cytofluorometry to estimate DNA content in the cell nuclei. In case of apoptosis-like cellular death, the portion of cell nuclei with normal content of DNA became reduced, while the portion of cell nuclei containing abnormally small DNA quantity became larger.
The analysis procedure was the following: after incubation completion, cells were centrifuged and transferred to a standard phosphate isotonic buffer pH 7.4, containing RNA-ase A (20 μg/mL), ethidium bromide (fluorometric indicator for double stranded nucleic acid. 10 μg/mL) and MgCl2 (5 mM). After the cells were disintegrated by nonionic detergent Triton X-100 (final concentration 0.1%). The suspension of cell nuclei thus obtained was analyzed by flow cytofluorometry with an argon laser as a source of light (wave length 488 nm). The red fluorescence due to DNA bound ethidium bromide was taken to be the measure of DNA content in the cell nuclei.

[7] = system: Erlich adenocarcinoma cells; experiment: Erlich adenocarcinoma in mice: ascitic fluid and survival (Example 14); settings: for Accumulation of ascitic (weight gain, %): Erlich adenocarcinoma
Description: as §6, §7, §8, §9, §10, §11

[8] = system: rat embrional fibroblasts (REF); experiment: Number of REF cells throughout 72-hr incubation; assay type: cell-based
Description: as §1, §2
(§5) REF cells was cultivated with initial density of 800 000 cell per mL, evaluation of the cellularity was performed at 0, 24, 48 and 72 hours of incubation with the test articles.
as §4

[9] = system: rat embrional fibroblasts (REF) after UV-irradiation; experiment: Number of REF cells after UV-irradiation; assay type: cell-based
Description: as §1, §2, §5, §4

SMILES: NCCSSCCN [0.1% cystamine, 2,2′-Dithio-bis[ethylamine]]
- Accumulation of ascitic (weight gain, %) (leukemia P388 cells [1]; number of injection 0): 0.4 ± 0.3%
- Accumulation of ascitic (weight gain, %) (leukemia P388 cells [1]; number of injection 3): 5.2 ± 0.6%
- Accumulation of ascitic (weight gain, %) (leukemia P388 cells [1]; number of injection 7): 18.8 ± 1.1%
- Mean survival time (leukemia P388 cells [1]; mice inoculated with leukemia P388 cells): 20.2 ± 0.3
- number of clones of e-ras cells (M ± m) ([2]; 0 hours of incubation): 276 ± 4
- number of clones of e-ras cells (M ± m) ([2]; 24 hours of incubation): 281 ± 4
- number of clones of e-ras cells (M ± m) ([2]; 48 hours of incubation): 271 ± 6
- number of clones of e-ras cells (M ± m) ([2]; 72 hours of incubation): 258 ± 3
- number of clones of e-ras cells after UV-irradiation (M ± m) ([3]; 0 hours): 276 ± 4
- number of clones of e-ras cells after UV-irradiation (M ± m) ([3]; 24 hours): 181 ± 4
- number of clones of e-ras cells after UV-irradiation (M ± m) ([3]; 48 hours): 111 ± 6
- number of clones of e-ras cells after UV-irradiation (M ± m) ([3]; 72 hours): 108 ± 3
- Accumulation of ascitic fluid (weight gain) (leukemia P388 cells [4]; 0 injections): 0.67 ± 0.22%
- Concentration in serum: IFNα (leukemia P388 cells [4]; 0 injections): 107 ± 8.06 pg/mL
- Concentration in serum: IL-1 (leukemia P388 cells [4]; 0 injections): 30.0 ± 4.02 pg/mL
- Concentration in serum: IL-2 (leukemia P388 cells [4]; 0 injections): 14.9 ± 2.05 pg/mL
- Concentration in serum: IL-6 (leukemia P388 cells [4]; 0 injections): 72.7 ± 9.10 pg/mL
- Concentration in serum: TNFα (leukemia P388 cells [4]; 0 injections): 80.5 ± 7.14 pg/mL
- Accumulation of ascitic fluid (weight gain) (leukemia P388 cells [4]; 3 daily injections): 6.0 ± 0.49%
- Concentration in serum: IFNα (leukemia P388 cells [4]; 3 daily injections): 216. ± 19.08 pg/mL
- Concentration in serum: IL-1 (leukemia P388 cells [4]; 3 daily injections): 41.5 ± 5.81 pg/mL
- Concentration in serum: IL-2 (leukemia P388 cells [4]; 3 daily injections): 15.25 ± 1.80 pg/mL
- Concentration in serum: IL-6 (leukemia P388 cells [4]; 3 daily injections): 184.0 ± 15.6 pg/mL
- Concentration in serum: TNFα (leukemia P388 cells [4]; 3 daily injections): 204. ± 16.1 pg/mL
- Accumulation of ascitic fluid (weight gain) (leukemia P388 cells [4]; 7 daily injections): 19.9 ± 1.67%
- Concentration in serum: IFNα (leukemia P388 cells [4]; 7 daily injections): 315. ± 9.80 pg/mL
- Concentration in serum: IL-1 (leukemia P388 cells [4]; 7 daily injections): 22.3 ± 3.0 pg/mL
- Concentration in serum: IL-2 (leukemia P388 cells [4]; 7 daily injections): 20.18 ± 2.50 pg/mL
- Concentration in serum: IL-6 (leukemia P388 cells [4]; 7 daily injections): 170.6 ± 14.3 pg/mL
- Concentration in serum: TNFα (leukemia P388 cells [4]; 7 daily injections): 220. ± 19.1 pg/mL
- Mean survival time (leukemia P388 cells [4]; mice inoculated with leukemia P388 cells, daily injections till day 14 or death): 9.93 ± 0.27
- Accumulation of ascitic (weight gain, %) (leukemia L1210 cells [5]; number of injection 0): 0.42 ± 0.3%
- Accumulation of ascitic (weight gain, %) (leukemia L1210 cells [5]; number of injection 3): 8.2 ± 0.6%
- Accumulation of ascitic (weight gain, %) (leukemia L1210 cells [5]; number of injection 7): 24.8 ± 2.1%
- Mean survival time (leukemia L1210 cells [5]; mice inoculated with leukemia L1210 cells): 10.2 ± 0.8
- Accumulation of ascitic fluid (weight gain) (leukemia L1210 cells [6]; 0 injections): 0.47%
- Concentration in serum: IFNα (leukemia L1210 cells [6]; 0 injections): 115.0 pg/mL
- Concentration in serum: IL-1 (leukemia L1210 cells [6]; 0 injections): 36.0 pg/mL
- Concentration in serum: IL-2 (leukemia L1210 cells [6]; 0 injections): 16.9 pg/mL
- Concentration in serum: IL-6 (leukemia L1210 cells [6]; 0 injections): 63.0 pg/mL
- Concentration in serum: TNFα (leukemia L1210 cells [6]; 0 injections): 88.6 pg/mL
- Accumulation of ascitic fluid (weight gain) (leukemia L1210 cells [6]; 3 daily injections): 5.93%
- Concentration in serum: IFNα (leukemia L1210 cells [6]; 3 daily injections): 200. pg/mL
- Concentration in serum: IL-1 (leukemia L1210 cells [6]; 3 daily injections): 47.50 pg/mL
- Concentration in serum: IL-2 (leukemia L1210 cells [6]; 3 daily injections): 17.30 pg/mL
- Concentration in serum: IL-6 (leukemia L1210 cells [6]; 3 daily injections): 70.0 pg/mL
- Concentration in serum: TNFα (leukemia L1210 cells [6]; 3 daily injections): 185.0 pg/mL
- Accumulation of ascitic fluid (weight gain) (leukemia L1210 cells [6]; 7 daily injections): 21.17%
- Concentration in serum: IFNα (leukemia L1210 cells [6]; 7 daily injections): 137.0 pg/mL
- Concentration in serum: IL-1 (leukemia L1210 cells [6]; 7 daily injections): 28.0 pg/mL
- Concentration in serum: IL-2 (leukemia L1210 cells [6]; 7 daily injections): 22.8 pg/mL
- Concentration in serum: IL-6 (leukemia L1210 cells [6]; 7 daily injections): 155.0 pg/mL
- Concentration in serum: TNFα (leukemia L1210 cells [6]; 7 daily injections): 213.0 pg/mL
- Mean survival time (leukemia L1210 cells [6]; mice inoculated with leukemia L1210 cells, daily injections till day 14 or death): 9.53 ± 0.18
- number of normal lymphocytes per well (normal human lymphocytes; 24 hours incubation): 30 ± 2 × 10^4 cells
- number of normal lymphocytes per well (normal human lymphocytes; 48 hours incubation): 72 ± 4 × 10^4 cells
- number of normal lymphocytes per well (normal human lymphocytes; 72 hours incubation): 122 ± 9 × 10^4 cells
- number of normal lymphocytes per well (normal human lymphocytes; 96 hours incubation): 196 ± 11 × 10^4 cells
- number of HL-60 cells per well (HL-60 cells; 24 hours incubation): 112 ± 10 × 10^4 cells
- number of HL-60 cells per well (HL-60 cells; 48 hours incubation): 182 ± 9 × 10^4 cells
- number of HL-60 cells per well (HL-60 cells; 72 hours incubation): 465 ± 11 × 10^4 cells
- number of HL-60 cells per well (HL-60 cells; 96 hours incubation): 618 ± 19 × 10^4 cells
- Accumulation of ascitic (weight gain, %) ([7]; number of injection 0): 0.6 ± 0.2%
- Accumulation of ascitic (weight gain, %) ([7]; number of injection 3): 9.2 ± 0.8%
- Accumulation of ascitic (weight gain, %) ([7]; number of injection 7): 25.8 ± 1.7%
- Mean survival time ([7]; mice inoculated with Erlich adenocarcinoma cells): 10.2 ± 0.8
- number of REF cells (M ± m) ([8]; 0 hours of incubation): 822 ± 14 × 10^3 cells
- number of REF cells (M ± m) ([8]; 24 hours of incubation): 1523 ± 11 × 10^3 cells
- number of REF cells (M ± m) ([8]; 48 hours of incubation): 2486 ± 34 × 10^3 cells
- number of REF cells (M ± m) ([8]; 72 hours of incubation): 5048 ± 126 × 10^3 cells
- number of REF cells after UV-irradiation (M ± m) ([9]; 0 hours): 822 ± 14 × 10^3 cells
- number of REF cells after UV-irradiation (M ± m) ([9]; 24 hours): 523 ± 11 × 10^3 cells
- number of REF cells after UV-irradiation (M ± m) ([9]; 48 hours): 246 ± 34 × 10^3 cells
- number of REF cells after UV-irradiation (M ± m) ([9]; 72 hours): 208 ± 26 × 10^3 cells
